{GalNAc3} = trishexylamino-C6 triantennary GalNAc conjugate; e = 2'-O-(2-methoxyethyl) (MOE); d = 2'-deoxy (DNA)
Assays:
OAT3 = test system: T1, OAT3; assay: OAT3 substrate uptake study in MDCK cells; assay type: in vitro ADME; conditions: 10 μM ASO
T1 construct: expressed in transfected cells; host or cells: MDCK-II
Description: (§1) A 96-well cell culture plate containing a monolayer of MDCK-II cells grown on a permeable support and a corresponding receiver tray was used. The basolateral compartment of the culture plate and wells were washed with warm HBSS three times, with wells of the culture plate serving as the apical compartment. The wash was aspirated by adding 150 μL of 37°C HBSS to both compartments. Plates were incubated at 37°C with orbital shaking at 60 rpm for 15 min for OAT1, OAT3, OCT1, OCT2, OATP1B1, and OATP1B3 (±5 min). The pre-incubation buffer from both compartments was aspirated and 150 μL of the following was added to the basal compartment. For the probe substrate transport assay, HBSS in each well contained one of following probe substrates (positive control for transport), OCT1, 2 μM [^3H]-MPP^+; OCT2, 10 μM [^14C]-metformin; OAT1, 2 μM [^3H]-p-aminohippurate; OAT3, 10 μM [^3H]-p-aminohippurate; OATP1B1, 2 μM [^3H]-estradiol-17 β-D-glucuronide; and OATP1B3, 2 μM [^3H]-cholecystokinin octapeptide (CCK-8). […] Inhibition studies contained HBSS in each well, the probe substrate, and 100 μM of each test article, whereas substrate studies contained HBSS in each well and 10 μM of each test article. […] Samples containing probe substrate were added to 200 μL of scintillation fluid and counted on a 1450 Microbeta (PerkinElmer), whereas samples containing the test article were kept frozen. Test article concentrations, including control samples, were evaluated by an LC-MS method.
(§2) Signal to noise for probe substrates was calculated by dividing the uptake of the probe substrate in transporter-expressing cells by the uptake of probe substrate in control cells not expressing the transporter of interest. Percent inhibition was calculated by dividing the net-transporter-mediated substrate uptake in the presence of the test article or the reference inhibitor by the net-transporter-mediated substrate uptake in the absence of the inhibitor according to the equation: %inhibition=100−(100×(transporter-mediateduptake)withinhibitor/(transporter-mediateduptake)withoutinhibitor).

OCT2 = test system: T2, OCT2; assay: OCT2 substrate uptake study in MDCK cells; assay type: in vitro ADME; conditions: 10 μM ASO
T2 construct: expressed in transfected cells; host or cells: MDCK-II
Description: as §1, §2

OATP1B1 = test system: T3, OATP1B1; assay: OATP1B1 substrate uptake study in MDCK cells; assay type: in vitro ADME; conditions: 10 μM ASO
T3 construct: expressed in transfected cells; host or cells: MDCK-II
Description: as §1, §2

BSEP = test system: T4, BSEP; assay: BSEP substrate study in Sf9 membrane vesicles; assay type: in vitro ADME; conditions: 10 μM ASO, ATP vs AMP
T4 construct: purchased Life Technologies; host or cells: Sf9 cells (membrane vesicles)
Description: The test system included a 96-well flat bottom plate containing a suspension of vesicles and a 96-well glass fiber filtration plate. Transport experiments were initiated with the addition of Mg-ATP (for ATP-dependent BSEP uptake) or AMP (non-ATP-dependent uptake) to appropriate wells. Preparation of the flat-bottom plates included incubation with blocking buffer for 60 min at 37°C with orbital shaking at 120 rpm. After 60 min, the blocking buffer was completely removed and assay uptake buffer solutions were added. For BSEP inhibition studies, solutions contained 1 μM [^3H]-taurocholic acid as a substrate and either assay vehicle, test article (at 100 μM), or reference inhibitor (300 μM rifampicin). For BSEP substrate studies, solutions contained either 1 μM [^3H]-taurocholic acid or 10 μM test article. Vesicles were added to assay plates and incubated at 37°C with orbital shaking at 120 rpm for 15 min. To initiate the assay, either Mg-ATP or AMP was added to test wells at a final concentration of 5 mM. Plates were incubated at 37°C with orbital shaking at 120 rpm for 15 min. A glass fiber filtration plate was incubated with blocking buffer for 2 min. Vacuum was then applied to remove the blocking buffer, and ice-cold wash buffer was added to the filtration plate. Vesicular transport was quenched by adding ice-cold wash buffer. Assay samples were then mixed as diluted in wash buffer and 175 μL was transferred into the 96-well glass fiber filtration plate to separate vesicles. […] These samples were counted using a 1450 Microbeta (Perkin-Elmer). […] The test article was quantitated by LC-MS. […]
Signal to noise for the BSEP probe substrate was calculated by dividing the uptake of the probe substrate in BSEP-expressing vesicles in the presence of ATP by the uptake of the BSEP substrate in the vesicles in the presence of AMP. Percent inhibition in the presence of the test article or the reference inhibitors was calculated as: %inhibition=100−(100×(ATP−dependent,transportor−mediatedaccumulation)withinhibitor/(ATP−dependent,transportor−mediatedaccumulation)withoutinhibitor).

CYP2B6 = molecular target: T5, CYP2B6 (Homo sapiens, UniProt P20813); conditions: hepatocytes
T5 sequence (P20813 1-491): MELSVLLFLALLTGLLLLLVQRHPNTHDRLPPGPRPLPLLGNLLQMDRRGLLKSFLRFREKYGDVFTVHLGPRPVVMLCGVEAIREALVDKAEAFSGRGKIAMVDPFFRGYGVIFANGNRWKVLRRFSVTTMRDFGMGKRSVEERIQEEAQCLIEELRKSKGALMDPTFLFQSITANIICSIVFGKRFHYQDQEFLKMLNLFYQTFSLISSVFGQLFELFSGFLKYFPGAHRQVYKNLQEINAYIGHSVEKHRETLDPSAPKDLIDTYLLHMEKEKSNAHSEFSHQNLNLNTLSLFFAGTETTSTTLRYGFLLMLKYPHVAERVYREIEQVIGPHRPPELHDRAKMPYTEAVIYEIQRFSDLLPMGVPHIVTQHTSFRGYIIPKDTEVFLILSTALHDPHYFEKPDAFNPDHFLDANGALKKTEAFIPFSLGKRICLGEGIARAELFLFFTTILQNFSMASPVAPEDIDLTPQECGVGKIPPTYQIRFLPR
Description: (§3) Preincubations were performed in 50 μL of Williams’ Medium E with 2 mM salicylamide. The salicylamide was included to reduce possible phase II conjugation to the precursor phase I metabolites. […] Human hepatocytes (pooled from 5 donors) were thawed and prepared according to the vendor’s protocol. […] Incubations were carried out at 37°C with 5% CO2. The incubation time was 45 min for phenacetin, diclofenac, dextromethorphan, midazolam, bupropion, chlorzoxazone, and testosterone and 90 min for paclitaxel and (S)-mephenytoin. The reactions were stopped by adding 200 μL of ice-cold acetonitrile (can) with tolbutamide (100 ng/mL) as the internal standard to 100 μL of hepatocyte suspension (1:2, v/v). The 96-well plate was then vortexed at 1,700 rpm for 3 min and centrifuged at 3,500 rpm for 10 min at 20°C. The supernatants were analyzed using liquid chromatography-tandem MS (LC-MS/MS).

CYP2C19 = CYP2C19 (Homo sapiens, UniProt P33261); conditions: hepatocytes
CYP2C19, sequence (P33261 whole entry): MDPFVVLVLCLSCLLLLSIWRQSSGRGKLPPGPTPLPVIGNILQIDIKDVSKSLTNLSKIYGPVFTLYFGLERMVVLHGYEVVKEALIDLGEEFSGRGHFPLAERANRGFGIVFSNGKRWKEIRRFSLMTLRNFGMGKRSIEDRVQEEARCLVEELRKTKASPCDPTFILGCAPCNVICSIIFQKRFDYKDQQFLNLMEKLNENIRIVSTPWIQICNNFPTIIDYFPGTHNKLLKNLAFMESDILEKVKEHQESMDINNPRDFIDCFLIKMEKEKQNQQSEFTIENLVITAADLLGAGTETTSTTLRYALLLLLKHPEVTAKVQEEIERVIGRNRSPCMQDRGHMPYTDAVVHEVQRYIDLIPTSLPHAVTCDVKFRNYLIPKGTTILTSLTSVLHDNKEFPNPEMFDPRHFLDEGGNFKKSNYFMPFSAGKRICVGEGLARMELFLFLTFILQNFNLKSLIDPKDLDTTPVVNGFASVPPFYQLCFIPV
Description: as §3

CYP2D6 = CYP2D6 (Homo sapiens, UniProt P10635); conditions: hepatocytes
CYP2D6, sequence (P10635 whole entry): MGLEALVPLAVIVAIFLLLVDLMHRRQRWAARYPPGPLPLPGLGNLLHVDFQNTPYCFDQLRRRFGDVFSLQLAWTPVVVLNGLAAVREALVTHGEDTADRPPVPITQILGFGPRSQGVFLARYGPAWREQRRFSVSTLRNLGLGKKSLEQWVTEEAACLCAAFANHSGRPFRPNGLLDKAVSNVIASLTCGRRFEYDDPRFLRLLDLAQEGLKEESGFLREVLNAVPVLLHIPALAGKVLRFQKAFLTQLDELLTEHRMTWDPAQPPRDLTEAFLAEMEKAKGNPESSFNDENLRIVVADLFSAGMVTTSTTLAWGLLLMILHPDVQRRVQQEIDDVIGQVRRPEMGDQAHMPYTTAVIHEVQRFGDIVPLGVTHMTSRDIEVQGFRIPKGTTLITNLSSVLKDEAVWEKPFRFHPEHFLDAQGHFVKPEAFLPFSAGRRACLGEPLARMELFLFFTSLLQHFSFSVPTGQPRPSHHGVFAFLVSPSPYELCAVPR
Description: as §3

CYP2E1 = CYP2E1 (Homo sapiens, UniProt P05181); conditions: hepatocytes
CYP2E1, sequence (P05181 whole entry): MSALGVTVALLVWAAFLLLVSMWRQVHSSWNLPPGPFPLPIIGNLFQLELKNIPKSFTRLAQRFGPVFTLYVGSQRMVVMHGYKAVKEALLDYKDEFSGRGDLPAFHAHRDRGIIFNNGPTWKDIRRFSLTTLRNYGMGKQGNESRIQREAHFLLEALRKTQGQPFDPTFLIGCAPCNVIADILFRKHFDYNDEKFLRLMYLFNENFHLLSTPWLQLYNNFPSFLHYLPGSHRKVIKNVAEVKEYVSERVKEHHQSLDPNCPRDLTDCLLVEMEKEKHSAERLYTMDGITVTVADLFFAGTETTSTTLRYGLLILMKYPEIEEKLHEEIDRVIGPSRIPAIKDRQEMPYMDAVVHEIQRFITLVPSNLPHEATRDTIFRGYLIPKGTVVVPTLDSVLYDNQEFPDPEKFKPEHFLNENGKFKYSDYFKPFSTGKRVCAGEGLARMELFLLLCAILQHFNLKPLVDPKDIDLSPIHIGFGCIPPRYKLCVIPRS
Description: as §3

CYP3A4 = CYP3A4 (Homo sapiens, UniProt P08684); conditions: hepatocytes
CYP3A4, sequence (P08684 whole entry): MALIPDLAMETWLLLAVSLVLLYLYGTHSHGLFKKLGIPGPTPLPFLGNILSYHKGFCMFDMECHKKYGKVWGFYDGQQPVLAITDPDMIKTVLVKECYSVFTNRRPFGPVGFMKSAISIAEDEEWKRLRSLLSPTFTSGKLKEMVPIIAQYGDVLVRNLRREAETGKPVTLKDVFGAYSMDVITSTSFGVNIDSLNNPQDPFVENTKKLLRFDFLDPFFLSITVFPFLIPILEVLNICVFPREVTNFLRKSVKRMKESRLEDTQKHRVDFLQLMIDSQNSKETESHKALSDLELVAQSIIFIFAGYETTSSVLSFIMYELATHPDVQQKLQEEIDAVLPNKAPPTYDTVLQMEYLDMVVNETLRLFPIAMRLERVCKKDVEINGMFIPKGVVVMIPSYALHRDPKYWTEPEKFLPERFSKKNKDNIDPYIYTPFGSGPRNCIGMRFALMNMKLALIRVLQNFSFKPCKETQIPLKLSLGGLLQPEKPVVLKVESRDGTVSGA
Description: as §3

Substance	OAT3-mediated uptake relative to corresponding controls (OAT3) [fold]	OCT2-mediated uptake relative to corresponding controls (OCT2) [fold]	OATP1B1-mediated uptake relative to corresponding controls (OATP1B1) [fold]	BSEP-mediated uptake relative to corresponding controls (BSEP) [fold]	IC50 (CYP2B6) [µM]	IC50 (CYP2C19) [µM]	IC50 (CYP2D6) [µM]	IC50 (CYP2E1) [µM]	IC50 (CYP3A4) [µM]
ISIS 304801: 20-mer (5-10-5) 2′-MOE gapmer PS backbone antisense inhibitor of apoC-III, sequence AGCTTCTTGTCCAGCTTTAT (sugars from the 5' end e5 d10 e5, all phosphorothioate, methylation of C not given here)	< 2	< 2	< 2	< 2	> 100	> 100	> 100	> 100	> 100
ISIS 420915: 20-mer 2′-MOE gapmer PS backbone antisense inhibitor of transthyretin, sequence TCTTGGTTACATGAAATCCC (all phosphorothioate, sugars by position and methylation of C not given here; 2'-MOE gapmer)	< 2	< 2	< 2	< 2	> 100	> 100	> 100	> 100	> 100
ISIS 681257: 20-mer 2′-MOE gapmer PS/PO mixed backbone ASO conjugated to 5′-trishexylamino GalNAc3, targets Lp(a), sequence TGCTCCGTTGGTGCTTGTTC (5' {GalNAc3}, sugars by position and backbone not given here; 2'-MOE gapmer with mixed PS/PO backbone)	< 2	< 2	< 2	< 2					

Source: publication PMC5602538, “Assessment of the Drug Interaction Potential of Unconjugated and GalNAc3-Conjugated 2′-MOE-ASOs” (Molecular Therapy. Nucleic Acids, 2017)
